Reference: patent US9617267B2, “Compounds and methods for kinase modulation, and indications therefor” (Plexxikon Inc., priority 2009, dated 2017)

Test: Relative solubility by turbidity threshold concentration in aqueous buffers (pH 1.5, 4.5, 6.8, 7.4)
Assay type: physicochemical
Details: for turbidity threshold (L, M, H) 1.4: pH 1.4 [sic] (method: SGF pH 1.5); for turbidity threshold (L, M, H) 6.8: pH 6.8 (SIF); for turbidity threshold (L, M, H) 7.4: pH 7.4 (HEPES); for turbidity threshold (L, M, H) 4.5: pH 4.5 (SIF)
Procedure: As an indication of relative solubility, the turbidity of compounds in aqueous solutions is assessed. To assess possible compound properties in different physiological compartments, such as stomach, intestine, and blood, a series of aqueous buffers with varying pH is used. Thus each compound is diluted into four different physiologically relevant buffers and solution turbidity is measured by spectrophotometry.
Compounds are dissolved at a concentration of 25 mM in dimethyl sulfoxide, then serially diluted 1:1 into a 96 well plate, diluting 10 times in pure dimethyl sulfoxide, with the final well of each row a dimethyl sulfoxide blank. In an assay plate, 99 μL of appropriate buffer is added to each well, and 1 μL of each sample dilution is added to the buffer, achieving a range of final total concentrations in aqueous solutions having different pH. The buffers used are Simulated Gastric Fluid (SGF-pH 1.5) 0.5M NaCl, pH 1.5; Simulated Intestinal fluid (SIF-pH 4.5 and pH 6.8) 0.05M NaH2PO4, pH 4.5 and 6.8; and Hepes Buffer (HEPES-pH 7.4) 10 mM HEPES, 150 mM NaCl, pH 7.4. Control compounds pyrene, estriol and propranolol HCl are also assessed. Plates are spun and then mixed for 1 minute, and the absorbance is read using a Tecan Safire II to read wavelengths in the visible range (490, 535, and 650 nm) at four locations per well, reflecting the degree of turbidity present. The average optical density for each wavelength in each well is graphed vs. compound concentration, and the concentration at which the curve crosses a threshold O.D. of 0.01 for each wavelength is reported as the endpoint turbidity assay result. The average of the three wavelengths is used to compare turbidity of compounds. Compounds are considered to have low solubility if the threshold concentration is <31.3 μM, moderate solubility if the threshold concentration is 31.3 μM to 250 μM, and high solubility if the threshold concentration is >250 μm.
The following table indicates the relative solubility (L=low, M=moderate, H=high) based on turbidity threshold concentration at each pH for exemplary compounds according to the invention as indicated: […]

Row | SMILES | turbidity threshold (L, M, H) 1.4 | turbidity threshold (L, M, H) 6.8 | turbidity threshold (L, M, H) 7.4 | turbidity threshold (L, M, H) 4.5
1 | CCCS(=O)(=O)Nc1ccc(F)c(C(=O)c2c[nH]c3ncnc(CC(C)C)c23)c1F [P-1014, Propane-1-sulfonic acid [2,4-difluoro-3-(4-isobutyl-7H-pyrrolo[2,3-d]pyrimidine-5-carbonyl)-phenyl]-amide] | M (moderate solubility if the threshold concentration is 31.3 μM to 250 μM) | M (moderate solubility if the threshold concentration is 31.3 μM to 250 μM) | M (moderate solubility if the threshold concentration is 31.3 μM to 250 μM) | 
2 | CCCS(=O)(=O)Nc1ccc(F)c(C(=O)c2c[nH]c3ncnc(NC4CC4)c23)c1F [P-1041, Propane-1-sulfonic acid [3-(4-cyclopropylamino-7H-pyrrolo[2,3-d]pyrimidine-5-carbonyl)-2,4-difluoro-phenyl]-amide] | H (high solubility if the threshold concentration is >250 μm) | M (moderate solubility if the threshold concentration is 31.3 μM to 250 μM) | M (moderate solubility if the threshold concentration is 31.3 μM to 250 μM) | M (moderate solubility if the threshold concentration is 31.3 μM to 250 μM)
3 | CCCS(=O)(=O)Nc1ccc(F)c(C(=O)c2c[nH]c3ncnc(NC(C)C)c23)c1F [P-1051, Propane-1-sulfonic acid [2,4-difluoro-3-(4-isopropylamino-7H-pyrrolo[2,3-d]pyrimidine-5-carbonyl)-phenyl]-amide] | H (high solubility if the threshold concentration is >250 μm) | M (moderate solubility if the threshold concentration is 31.3 μM to 250 μM) | M (moderate solubility if the threshold concentration is 31.3 μM to 250 μM) | M (moderate solubility if the threshold concentration is 31.3 μM to 250 μM)
4 | CCCS(=O)(=O)Nc1ccc(F)c(C(=O)c2c[nH]c3ncnc(Nc4ccncc4)c23)c1F [P-1076, Propane-1-sulfonic acid {2,4-difluoro-3-[4-(pyridin-4-ylamino)-7H-pyrrolo[2,3-d]pyrimidine-5-carbonyl]-phenyl}-amide] | H (high solubility if the threshold concentration is >250 μm) | H (high solubility if the threshold concentration is >250 μm) | H (high solubility if the threshold concentration is >250 μm) | H (high solubility if the threshold concentration is >250 μm)
5 | CCCS(=O)(=O)Nc1ccc(F)c(C(=O)c2c[nH]c3ncnc(Nc4cccc(Cl)c4)c23)c1F [P-1084, Propane-1-sulfonic acid {3-[4-(3-chloro-phenylamino)-7H-pyrrolo[2,3-d]pyrimidine-5-carbonyl]-2,4-difluoro-phenyl}-amide] | M (moderate solubility if the threshold concentration is 31.3 μM to 250 μM) | M (moderate solubility if the threshold concentration is 31.3 μM to 250 μM) | M (moderate solubility if the threshold concentration is 31.3 μM to 250 μM) | M (moderate solubility if the threshold concentration is 31.3 μM to 250 μM)
6 | CCCS(=O)(=O)Nc1ccc(F)c(C(=O)c2c[nH]c3ncnc(Nc4cccc(OC)c4)c23)c1F [P-1085, Propane-1-sulfonic acid {2,4-difluoro-3-[4-(3-methoxy-phenylamino)-7H-pyrrolo[2,3-d]pyrimidine-5-carbonyl]-phenyl}-amide] | L (low solubility if the threshold concentration is <31.3 μM) | L (low solubility if the threshold concentration is <31.3 μM) | L (low solubility if the threshold concentration is <31.3 μM) | L (low solubility if the threshold concentration is <31.3 μM)
7 | CCCS(=O)(=O)Nc1ccc(F)c(C(=O)c2c[nH]c3ncnc(Nc4ccc(Cl)cc4)c23)c1F [P-1087, Propane-1-sulfonic acid {3-[4-(4-chloro-phenylamino)-7H-pyrrolo[2,3-d]pyrimidine-5-carbonyl]-2,4-difluoro-phenyl}-amide] | M (moderate solubility if the threshold concentration is 31.3 μM to 250 μM) | M (moderate solubility if the threshold concentration is 31.3 μM to 250 μM) | M (moderate solubility if the threshold concentration is 31.3 μM to 250 μM) | L (low solubility if the threshold concentration is <31.3 μM)
8 | CCCS(=O)(=O)Nc1ccc(F)c(C(=O)c2c[nH]c3ncnc(NCC(C)C)c23)c1F [P-1088, Propane-1-sulfonic acid [2,4-difluoro-3-(4-isobutylamino-7H-pyrrolo[2,3-d]pyrimidine-5-carbonyl)-phenyl]-amide] | M (moderate solubility if the threshold concentration is 31.3 μM to 250 μM) | L (low solubility if the threshold concentration is <31.3 μM) | L (low solubility if the threshold concentration is <31.3 μM) | L (low solubility if the threshold concentration is <31.3 μM)
9 | CCCS(=O)(=O)Nc1ccc(F)c(C(=O)c2c[nH]c3ncnc(Nc4cccc(F)c4)c23)c1F [P-1094, Propane-1-sulfonic acid {2,4-difluoro-3-[4-(3-fluoro-phenylamino)-7H-pyrrolo[2,3-d]pyrimidine-5-carbonyl]-phenyl}-amide] | L (low solubility if the threshold concentration is <31.3 μM) | M (moderate solubility if the threshold concentration is 31.3 μM to 250 μM) | L (low solubility if the threshold concentration is <31.3 μM) | L (low solubility if the threshold concentration is <31.3 μM)
10 | CCCS(=O)(=O)Nc1ccc(F)c(C(=O)c2c[nH]c3ncnc(NC4CCN(CC)CC4)c23)c1F [P-1095, Propane-1-sulfonic acid {3-[4-(1-ethyl-piperidin-4-ylamino)-7H-pyrrolo[2,3-d]pyrimidine-5-carbonyl]-2,4-difluoro-phenyl}-amide] | H (high solubility if the threshold concentration is >250 μm) | H (high solubility if the threshold concentration is >250 μm) | H (high solubility if the threshold concentration is >250 μm) | H (high solubility if the threshold concentration is >250 μm)
11 | CCCS(=O)(=O)Nc1ccc(F)c(C(=O)c2c[nH]c3ncnc(Nc4cnn(CC)c4)c23)c1F [P-1099, Propane-1-sulfonic acid {3-[4-(1-ethyl-1H-pyrazol-4-ylamino)-7H-pyrrolo[2,3-d]pyrimidine-5-carbonyl]-2,4-difluoro-phenyl}-amide] | M (moderate solubility if the threshold concentration is 31.3 μM to 250 μM) | M (moderate solubility if the threshold concentration is 31.3 μM to 250 μM) | M (moderate solubility if the threshold concentration is 31.3 μM to 250 μM) | L (low solubility if the threshold concentration is <31.3 μM)
12 | Cc1nn(C)cc1Nc1ncnc2[nH]cc(C(=O)c3c(F)ccc(NS(=O)(=O)c4cc(F)ccc4F)c3F)c12 [P-1143, N-{3-[4-(1,3-Dimethyl-1H-pyrazol-4-ylamino)-7H-pyrrolo[2,3-d]pyrimidine-5-carbonyl]-2,4-difluoro-phenyl}-2,5-difluoro-benzenesulfonamide] | L (low solubility if the threshold concentration is <31.3 μM) | L (low solubility if the threshold concentration is <31.3 μM) | L (low solubility if the threshold concentration is <31.3 μM) | L (low solubility if the threshold concentration is <31.3 μM)
